Earlier results as cited in patent US20020147153A1, “Nutritional supplement to alleviate symptoms associated with reduced levels of serotonin” (Functional Foods, Inc., priority 2001, published 2002).

Legend:
[1] = area under glycemic response curve, 2-hour period after 50 g carbohydrate, relative to white bread or glucose standard

Compound | time to increased mental alertness (safe and rapid manner) | time of maximum effect (then almost entirely excreted) [h] | glycemic index (GI) [1]
Cn1c(=O)c2c(ncn2C)n(C)c1=O [Caffeine] | approximately 30 minutes | 2 to 4.5 | 
O=C(CO)[C@@H](O)[C@H](O)[C@H](O)CO [Fructose] |  |  | 32
